Source: patent publication US6703229B2, “Aryl propenal double bond reductase” (Washington State University Research Foundation, priority 2000, dated 2004)
Blank lines part the entries; values can stand above or below the molecule they belong to.

What was measured:
reverse transcriptase = reverse transcriptase (Human immunodeficiency virus type 1 group M subtype B, UniProt P04585); settings: cited from earlier work
[1] = test system: aryl propenal double bond reductase (SEQ ID NO:2); assay: Enzyme assay of recombinant aryl propenal double bond reductase (HPLC of products); assay type: biochemical, Pinus taeda; settings: for reduction of the aryl propenal substrate by the recombinant reductase: recombinant enzyme expressed from SEQ ID NO:1, in the presence of [4R]-NADPH
Experimental: Enzyme assays—Each non-radioactive assay (250 μl) consisted of buffer (50 mM Tris-HCl, pH 8.0), substrate (12.5 mM in DMSO, 10 μl), NADPH (25 mM in H2O, 10 μl), and the enzyme preparation (30 μl containing 5 mM DTT). Controls were performed using either denatured enzyme (boiled 96° C., 10 min) or in absence of enzyme. After 1 hour incubation at 30° C. with shaking, the reaction mixture was extracted with EtOAc (500 μl×2) with the EtOAc solubles combined and evaporated to dryness in vacuo. The EtOAc solubles were dissolved in CH3CN (10 μl) and then in 3% AcOH (90 μl), and subjected to reverse-phase HPLC with UV detection (280 nm).
Radioactive assays were performed in the same way as the non-radioactive assay with the following exceptions: the reaction was initiated by addition of [4S-^3H] or [4R-^3H]NADPH (25 mM in H2O, 666.7 kBq 10 μl). The EtOAc solubles were reconstituted in CH3CN/H2O and subjected to reverse-phase HPLC as described above with 0.5 ml fractions collected and an aliquot (100 μl) of each removed for scintillation counting to determine the level of incorporation of ^3H into the products.
Reversed phase HPLC separation of substrates and products—Separation of dehydrodiconiferyl alcohol (DDC), dihydrodehydrodiconiferyl alcohol (DDDC), dehydrodiconiferyl aldehyde (DDCA), dihydrodehydrodiconiferyl aldehyde (DDDCA) coniferyl alcohol (CA), dihydroconiferyl alcohol (DCA), coniferyl aldehyde (CAL), and dihydroconiferyl aldehyde (DCAL) was carried out using a reverse-phase column (Symmetry Shield RP8, 3.9×150 mm, Waters) as follows: CH3CN-3% AcOH in H2O (1:9) from 0 to 5 min, then linear gradient to 1:3 between 5 to 30 min, and finally linear gradient to 100% CH3CN over 25 min, at a flow rate of 1 ml/min.

cAMP-phosphodiesterase = settings: cited from earlier work

Molecule: COc1cc(C[C@H]2C(=O)OC[C@@H]2Cc2ccc(OC)c(OC)c2)ccc1O [(−)-arctigenin]
effectiveness against HIV (reverse transcriptase inhibitory activity) (reverse transcriptase): effective against HIV

Molecule: COc1cc(/C=C/C=O)ccc1O [coniferyl aldehyde]
reduction of the aryl propenal substrate by the recombinant reductase [1]: capable of reducing coniferyl aldehyde to dihydroconiferyl aldehyde

reduction of the aryl propenal substrate by the recombinant reductase [1]: regiospecifically reduce the double-bond
Molecule: COc1cc([C@@H]2Oc3c(OC)cc(/C=C/C=O)cc3[C@H]2CO)ccc1O [dehydrodiconiferyl aldehyde]

Molecule: COc1cc(C[C@H]2COC(=O)[C@@H]2Cc2ccc(O)c(OC)c2)ccc1O [matairesinol]
inhibition of cAMP-phosphodiesterase (cAMP-phosphodiesterase): inhibit cAMP-phosphodiesterase

Molecule: CC(Cc1ccc(O)c(O)c1)C(C)Cc1ccc(O)c(O)c1 (stereo not shown) [nordihydroguaiaretic acid]
effectiveness against HIV (reverse transcriptase inhibitory activity) (reverse transcriptase): effective against HIV

Molecule: (−)-trachelogenin
effectiveness against HIV (reverse transcriptase inhibitory activity) (reverse transcriptase): effective against HIV

B1: aryl propenal double bond reductase (SEQ ID NO:2): Pinus taeda aryl propenal double bond reductase encoded by cDNA SEQ ID NO:1, expressed in E. coli (protein)
chain: MEQRVPNRELILVAYANEGPVTDSHLNIRETKLDLGSVGKDGSSGDVAVQNLWISVDPYLRQLMKESDDGLYLPSFPLNQAIRSILVGKVVASANPAFEVGDIVSGFYQVSEYAIVPRGDLMKIDTSVVKPSDYLGLLGMPALTAWAGFIIVGEPKPGDEVFVSAAAGSVGMLVGQLAKIKSCRVVGSAGSDQKVKLLKEFGFDDAFNYKCETDLDAALSRYFPRGIDIYFDNVGGRMLEAVLNHINMKARIPLCGMISQYNQEWKQRFGVRNLLNLVGKCAKMEGFMSGQYHHRMGEFFEEMTGYIKQGKIKYKEDVKVGLDSFLEAFNSMFTGENIGKPVIYLGPPLPK
enzymatic activity of the expressed reductase ([1]; expressed in E. coli, GST fusion removed): enzymatically active
